Experimental findings from US20230067929A1, “HETEROCYCLIC DERIVATIVES, PHARMACEUTICAL COMPOSITIONS AND THEIR USE IN THE TREATMENT, AMELIORATION OR PREVENTION OF CANCER” (Tolremo Therapeutics AG, priority 2018, published 2023) are described below.

By EC50 is commonly meant the concentration needed to bring the measured effect to its halfway point.

In the test the test system is A375 cells. Put plainly: A375 cell immunofluorescence assay (with 1 μM S1152 and 0.5 μM S1008), EC50. In kind it is cell-based. The following applies: 1 μM S1152 + 0.5 μM S1008, one day, ratio FL2/FL3 staining (sc-365823 antibody). As for the experimental part:
One thousand four hundred A375 cells were seeded in each well of a 384 well microplate. One day later they were treated with 1 μM S1152 (Selleckchem) in dimethyl sulfoxide, 0.5 μM S1008 (Selleckchem) and dose ranges of invention compounds for one day in Dulbecco's Modified Eagle's Medium supplemented with 10% fetal calf serum and 2 mM (2S)-2-amino-4-carbamoylbutanoic acid. Wells were incubated with 4% polyoxymethylene (Sigma Aldrich 158127) at ambient temperature. After ten minutes, polyoxymethylene was replaced with phosphate-buffered saline. After one minute phosphate-buffered saline was replaced with 0.2% polyethylene glycol octylphenyl ether in phosphate-buffered saline. After ten minutes at ambient temperature 0.2% polyethylene glycol octylphenyl ether in phosphate-buffered saline was replaced with 1% aminoethanoic acid in phosphate-buffered saline. […] After one hour at 37° C., the solution was replaced with phosphate-buffered saline twice. Phosphate-buffered saline was replaced with 2 μg/ml A-11029 (Invitrogen) in 0.05% polyoxyethylene (20) sorbitan monolaurate in phosphate-buffered saline. […] After one hour at ambient temperature in the dark, signal in wells was measured with a Acumen Cellista. 3,8-Diamino-5-[3-(diethylmethylammonio)propyl]-6-phenylphenanthridinium diiodide-positive objects were defined in FL3 (565-600 nm) with a perimeter between 50-800 μm and a total intensity of 10000-1000000 FLU. Signal in FL2 (500-530 nm) was measured in defined objects. A normalized ratio of total ln FL2 over total ln FL3 staining was log transformed. A non-linear regression (variable slope, 4 parameters) was used to calculate EC50 values using GraphPad Prism (Version 7.0d).
On to `CCC(=O)N1CCC(c2nc(Nc3cccc(F)c3)cc(-c3cccnc3)n2)C1` (centres unmarked), for which the concentration giving a half-maximal response (EC50) was greater than 10 µM. As for `CCC(=O)N1CCCC(c2nc(C)cc(Nc3cccc(F)c3)n2)C1` (centres unmarked), the EC50 was greater than 10 µM.

As to `CCC(=O)N1CCCC(c2nc(Nc3cccc(F)c3)cc(C3=CCOCC3)n2)C1` (centres unmarked), the concentration for a half-maximal effect (EC50) was greater than 10 µM. For the compound `CCC(=O)N1CCCC(c2nc(Nc3cccc(F)c3)cc(-c3cc[nH]n3)n2)C1` (centres unmarked), the EC50 is greater than 10 µM. Regarding `CCC(=O)N1CCCC(c2nc(Nc3cccc(F)c3)cc(C3=CCCCC3)n2)C1` (centres unmarked), the EC50 was greater than 10 µM.

For `CCC(=O)N1CCCC(c2nc(Nc3cccc(F)c3)cc(C3=CCCC3)n2)C1` (centres unmarked), the EC50 is greater than 10 µM.

`CCC(=O)N1CCCC(c2nc(Nc3cccc(F)c3)cc(-c3cccc(N4CCOCC4)c3)n2)C1` (centres unmarked): the EC50 lay in the range of 1 to 10 µM. As for `CCC(=O)N1CCCC(c2nc(Nc3cccc(F)c3)cc(-c3cccc(OC(F)F)c3)n2)C1` (centres unmarked), the EC50 was greater than 10 µM. Regarding `CC(=O)N1CCCC(c2nc(Nc3cccc(F)c3)cc(NC3CCOCC3)n2)C1` (centres unmarked), the EC50 was greater than 10 µM. On to `CC(=O)N1CCCC(c2nc(Nc3cccc(F)c3)cc(NC3CCCOC3)n2)C1` (centres unmarked), for which the half-maximal effective concentration (EC50) is 1 to 10 µM.

For `CC(=O)N1CCCC(c2nc(Nc3cncnc3)cc(Nc3cccc(F)c3)n2)C1` (centres unmarked), the EC50 is 1 to 10 µM. With `CC(=O)N1CCCC(Nc2cc(Nc3cccc(F)c3)nc(C3CCCN(C(C)=O)C3)n2)C1` (centres unmarked), the EC50 was greater than 10 µM. With `CC(=O)N1CCCC(c2nc(Nc3cccnc3)cc(Nc3cccc(F)c3)n2)C1` (centres unmarked) the figure was 1 to 10 µM; with `CC(=O)N1C[C@H](c2nc(Nc3cncc(C)c3)cc(Nc3ncccn3)n2)CC[C@@H]1C`, less than 1 µM. With `CCC(=O)N1CCCC(c2nc(NCc3ccccc3)cc(Nc3cccc(F)c3)n2)C1` (centres unmarked), the EC50 is greater than 10 µM. For `CCC(=O)N1CCCC(c2nc(NCCN(C)C)cc(Nc3cccc(F)c3)n2)C1` (centres unmarked), the EC50 is greater than 10 µM. On to `CC(C)CN1CCCC(c2nc(Nc3cccc(F)c3)cc(-c3cccnc3)n2)C1` (centres unmarked), for which the EC50 is greater than 10 µM. In the case of `CCN1CCCC(c2nc(Nc3cccc(F)c3)cc(-c3cccnc3)n2)C1` (centres unmarked), the EC50 is greater than 10 µM. With `CN1CCCC(c2nc(Nc3cccc(F)c3)cc(-c3cccnc3)n2)C1` (centres unmarked), the EC50 was greater than 10 µM.

Consider `CCCN1CCCC(c2nc(Nc3cccc(F)c3)cc(-c3cccnc3)n2)C1` (centres unmarked), for which the EC50 was greater than 10 µM. With `CCC(=O)N1CCCC(c2nc(NC3CC3)cc(-c3cccnc3)n2)C1` (centres unmarked), the EC50 was greater than 10 µM. For the compound `CCC(=O)N1CCCC(c2nc(NC3CCCCC3)cc(-c3cccnc3)n2)C1` (centres unmarked), the EC50 is greater than 10 µM.

As to `CCC(=O)N1CCCC(c2nc(NC3CCCC3)cc(-c3cccnc3)n2)C1` (centres unmarked), the EC50 is greater than 10 µM. On to `CCC(=O)N1CCCC(c2nc(NCc3ccccc3)cc(-c3cccnc3)n2)C1` (centres unmarked), for which the EC50 was greater than 10 µM. With `CCC(=O)N1CCCC(c2nc(-c3cccnc3)cc(N3CCOCC3)n2)C1` (centres unmarked) the figure was greater than 10 µM; with `CCC(=O)N1CCCC(c2nc(NC)cc(-c3cccnc3)n2)C1` (centres unmarked), greater than 10 µM; with `CCC(=O)N1CCCC(c2nc(Nc3cccc(F)c3)cc(C3CCOCC3)n2)C1` (centres unmarked), greater than 10 µM. Take `CCC(=O)N1CCCC(c2nc(Nc3cccc(F)c3)cc(C3CCCCC3)n2)C1` (centres unmarked): the 50% effective concentration (EC50) was greater than 10 µM.

For the compound `CCC(=O)N1CCCC(c2nc(Nc3cccc(F)c3)cc(C3CCCC3)n2)C1` (centres unmarked), the EC50 was greater than 10 µM.

`CCC(=O)N1CCCC(c2nc(-c3cccnc3)cc(N(C)c3cccc(F)c3)n2)C1` (centres unmarked): the EC50 is 1 to 10 µM.

As to `CCC(=O)N1CCCC(c2nc(-c3cccnc3)cc(N(c3cccc(F)c3)C(C)C)n2)C1` (centres unmarked), the EC50 is greater than 10 µM. For `COc1cncc(-c2cc(N(C)c3cccc(C)c3)nc(C3CCCN(C(C)=O)C3)n2)c1` (centres unmarked), the concentration for a half-maximal effect (EC50) was in the range of 1 to 10 µM.

Consider `CCC(=O)N1CCCC(c2nc(Cl)cc(Oc3cccc(F)c3)n2)C1` (centres unmarked), for which the EC50 was greater than 10 µM. The value for `CCC(=O)N1CCCC(c2nc(Oc3cccc(F)c3)cc(-c3cccnc3)n2)C1` (centres unmarked) was greater than 10 µM; that for `CCC(=O)N1CCCC(c2nc(Cc3cccc(F)c3)cc(-c3cccnc3)n2)C1` (centres unmarked) was greater than 10 µM. With `COc1cncc(-c2cc(Cc3cccc(F)c3)nc(C3CCCN(C(C)=O)C3)n2)c1` (centres unmarked) the figure was greater than 10 µM. In the case of `CCC(=O)N1CCCC(c2nc(Nc3cccc(F)c3)cc(-c3ncccn3)n2)C1` (centres unmarked), the concentration giving a half-maximal response (EC50) was greater than 10 µM. For `CCC(=O)N1CCCC(c2nc(Nc3cccc(F)c3)cc(-c3cscn3)n2)C1` (centres unmarked), the EC50 was greater than 10 µM. As to `CC(=O)N1CCCC(c2nc(Nc3cccc(F)c3)cc(-c3ncco3)n2)C1` (centres unmarked), the half-maximal effective concentration (EC50) is greater than 10 µM.

As to `CC(=O)N1CCCC(c2nc(Nc3cccc(F)c3)cc(-c3ncc(C)o3)n2)C1` (centres unmarked), the EC50 was greater than 10 µM.

In the case of `CC(=O)N1C[C@H](c2nc(Nc3cncc(C)c3)cc(-c3cncnc3)n2)CC[C@@H]1C`, the EC50 is less than 1 µM. For the compound `CNC(=O)N1CCCC(c2nc(Nc3cccc(F)c3)cc(-c3cccnc3)n2)C1` (centres unmarked), the EC50 fell in the range of 1 to 10 µM. With `CC(=O)N1CCOC(c2nc(Nc3cccc(F)c3)cc(-c3cccnc3)n2)C1` (centres unmarked) the figure was greater than 10 µM; with `CN1CCOC(c2nc(Nc3cccc(F)c3)cc(-c3cccnc3)n2)C1` (centres unmarked), greater than 10 µM; with `CS(=O)(=O)N1CCCC(c2nc(Nc3cccc(F)c3)cc(-c3cccnc3)n2)C1` (centres unmarked), greater than 10 µM.

Consider `O=S(=O)(N1CCCC(c2nc(Nc3cccc(F)c3)cc(-c3cccnc3)n2)C1)C(F)(F)F` (centres unmarked), for which the 50% effective concentration (EC50) is greater than 10 µM. With `CC(=O)N1CCC[C@H](c2nc(Nc3cccc(F)c3)cc(-c3cccnc3)n2)C1`, the EC50 was greater than 10 µM. In the case of `CC(=O)N1CCC[C@@H](c2nc(Nc3cccc(F)c3)cc(-c3cccnc3)n2)C1`, the EC50 is less than 1 µM. As to `CCC(=O)N1CCC[C@H](c2nc(Nc3cccc(F)c3)cc(-c3cccnc3)n2)C1`, the concentration for a half-maximal effect (EC50) is greater than 10 µM. For `CCC(=O)N1CCC[C@@H](c2nc(Nc3cccc(F)c3)cc(-c3cccnc3)n2)C1`, the EC50 is 1 to 10 µM. `COc1cncc(-c2cc(Nc3cccc(Cl)c3)nc([C@H]3CCCN(C(C)=O)C3)n2)c1`: the concentration giving a half-maximal response (EC50) is 1 to 10 µM.

`COc1cncc(-c2cc(Nc3cccc(Cl)c3)nc([C@@H]3CCCN(C(C)=O)C3)n2)c1`: the EC50 is less than 1 µM.

Turning to `CC(=O)N1CCCC(c2nc(Nc3cccc(F)c3)nc(-c3ccccc3)n2)C1` (centres unmarked), the EC50 lay in the range of 1 to 10 µM. With `CC(=O)N1CCCC(c2cc(-c3cccnc3)cc(Nc3cccc(F)c3)n2)C1` (centres unmarked), the EC50 was in the range of 1 to 10 µM.

Consider `CC(=O)N1CCCC(c2cc(Nc3cccc(F)c3)cc(-c3cccnc3)n2)C1` (centres unmarked), for which the half-maximal effective concentration (EC50) lay in the range of 1 to 10 µM.

Consider `COc1csc(-c2cc(Nc3cccc(F)c3)cc(C3CCCN(C(C)=O)C3)n2)c1` (centres unmarked), for which the EC50 fell in the range of 1 to 10 µM. As for `COc1cncc(-c2cc(Nc3cccc(F)c3)cc(C3CCCN(C(C)=O)C3)n2)c1` (centres unmarked), the EC50 lay within 1 to 10 µM.

In the case of `CC(=O)N1CC(c2cc(Nc3cccc(F)c3)cc(-c3cccnc3)n2)=CCC1C` (centres unmarked), the EC50 was 1 to 10 µM. As for `CC(=O)N1CCCC(c2cc(Nc3cccc(F)c3)cc(-c3c(C)noc3C)n2)C1` (centres unmarked), the EC50 was in the range of 1 to 10 µM. In the case of `CC(=O)N1CCCC(c2cc(Nc3cccc(F)c3)cc(-c3cncnc3)n2)C1` (centres unmarked), the EC50 lay in the range of 1 to 10 µM. The value for `Fc1cccc(Nc2cc(-c3cccnc3)nc(C3CCCN(CC(F)(F)F)C3)n2)c1` (centres unmarked) was greater than 10 µM; that for `CC(=O)N1CCCC(c2cc(Nc3cccc(F)c3)nc(-c3cccnc3)c2)C1` (centres unmarked) was greater than 10 µM; that for `CC(=O)N1CC2(c3nc(Nc4cccc(F)c4)cc(-c4cccnc4)n3)CCC1CC2` was greater than 10 µM. With `CN1CCC(c2nc(Nc3cccc(F)c3)cc(-c3cccnc3)n2)CC1=O` (centres unmarked), the EC50 was greater than 10 µM. For `CN1CC(c2nc(Nc3cccc(F)c3)cc(-c3cccnc3)n2)CCC1=O` (centres unmarked), the EC50 was greater than 10 µM. The value for `CC(=O)N1CC(C)CC(c2nc(Nc3cccc(F)c3)cc(-c3cccnc3)n2)C1` (centres unmarked) was less than 1 µM. On to `O=C1CCC2CCC(c3nc(Nc4cccc(F)c4)cc(-c4cccnc4)n3)CN12` (centres unmarked), for which the EC50 is greater than 10 µM. Regarding `CC(=O)N1C[C@H](c2nc(Nc3cccc(F)c3)cc(-c3cccnc3)n2)CC[C@@H]1C`, the concentration giving a half-maximal response (EC50) was less than 1 µM. `CN1CC(c2nc(Nc3cccc(F)c3)cc(-c3cccnc3)n2)CC1=O` (centres unmarked): the half-maximal effective concentration (EC50) was greater than 10 µM.

Turning to `CC(=O)N1CC(c2nc(Nc3cccc(F)c3)cc(-c3cccnc3)n2)CC(F)(F)C1` (centres unmarked), the EC50 is greater than 10 µM.

`CC(=O)N1CC(c2ccccc2)CC(c2nc(Nc3cccc(F)c3)cc(-c3cccnc3)n2)C1` (centres unmarked): the EC50 is less than 1 µM. Regarding `CC(=O)N1CC(c2nc(Nc3cccc(F)c3)cc(-c3cccnc3)n2)CCC1(C)C` (centres unmarked), the EC50 is greater than 10 µM. Turning to `CC(=O)N1CC(c2nc(Nc3cccc(F)c3)cc(-c3cccnc3)n2)CC2CCCCC21` (centres unmarked), the EC50 fell in the range of 1 to 10 µM.

With `CC(=O)N1CCCCC(c2nc(Nc3cccc(F)c3)cc(-c3cccnc3)n2)C1` (centres unmarked), the EC50 is less than 1 µM. On to `CC(=O)N1CC(c2nc(Nc3cccc(F)c3)cc(-c3cccnc3)n2)Cc2ccccc21` (centres unmarked), for which the EC50 was greater than 10 µM. For `CC(=O)N1CC(OCc2ccccc2)CC(c2nc(Nc3cccc(F)c3)cc(-c3cccnc3)n2)C1` (centres unmarked), the EC50 lay within 1 to 10 µM. As to `CC(=O)N1CCCC(c2nc(Nc3cccc(F)c3)cc(-c3cccnc3)n2)C1C` (centres unmarked), the EC50 was greater than 10 µM. The value for `CC(=O)N1CC(c2nc(Nc3cccc(F)c3)cc(-c3cccnc3)n2)CC(C)C1C` (centres unmarked) was less than 1 µM; that for `COC(=O)N1CCOCC(c2nc(Nc3cccc(F)c3)cc(-c3cccnc3)n2)C1` (centres unmarked) was 1 to 10 µM; that for `CC(=O)N1CCOCC(c2nc(Nc3cccc(F)c3)cc(-c3cccnc3)n2)C1` (centres unmarked) was 1 to 10 µM.
